In patent US4153709A, “N-Heterocyclic ureas as immune regulants” (Eli Lilly and Company, priority 1977, dated 1979):
Where two headings read alike, the source gives them in different places.

What was measured:
[1] = tested on: twelve histidine-auxotrophs of Salmonella typhimurium; type: in vivo, Salmonella typhimurium in Cox white Swiss male mice; conditions: 300 mg/kg
Procedure: The in vivo and in vitro mutagenic potential of 1-(6-methoxy-2-benzothiazolyl)-3-phenyl-urea was negative when tested versus the twelve histidine-auxotrophs of Salmonella typhimurium at a level of 300 mg/kg in vivo and 750 mcg/ml in vitro. Imuran and Cytoxan, compounds with immunosuppressive activity; Streptozotacin, N-nitrosodimethylamine (DMNA) and trimethylenemelamine (TEM) known mutagens and/or carcinogens; and Acetylsalicylic Acid (ASA) were used as control compounds.
A. Drug Administration: Appropriate solvents were used where applicable with a solvent control run within each test. The compounds to be tested were given either subcutaneously along the backbone of the mouse (0.1 ml.) or by oral gavage (0.5 ml.) B. Inoculation Technique: The histidine- cultures G46, C209, C3076, and D3056 used as the TA15 series have lost pathogenicity to mice because of absence or decrease in the lipopolysaccharide coat. The organisms were grown to stationary phase, then diluted with normal saline to give an inoculum near 1×10^8 organisms per milliliter. The abdominal area of the drug-treated mouse was swabbed with alcohol and two milliliters of bacterial culture were injected into the abdominal cavity of the mouse. The mice were returned to their cages for 3-4 hours.
C. Autopsy and Recovery: The mice were sacrificed individually by cervical dislocation prior to each autopsy. […]

[2] = tested on: mouse skin graft rejection (AKR skin on C3H mice); assay: Suppression of rejection of mouse-tail skin grafts (Table 19); type: in vivo, mice (C3H recipients, AKR donors); conditions: 50 mg/kg/2 days, POT vehicle, control 19.6 ± 1.3
Excerpt: Compounds disclosed herein have shown activity in suppressing the rejection of mouse skin grafts. […] Albino tail skin segments (AKR strain) were grafted onto the tails of groups of ten agouti recipient mice (C3H strain). Results achieved with two therapy regimens employing 1-(6-methoxy-2-benzothiazolyl)-3-phenyl urea were as follows:
*Treatment was commenced 3 days prior to grafting and continued every 2nd
**50% polyethylene glycol, 40% corn oil, 10% Tween 80

[3] = tested on: antibody response to sheep blood cells (hemaglutination titer); assay: Immune regulating test: suppression of hemaglutination titer by 4-fold factor in mice (i.p. drug, i.p. sheep blood cells), Tables 1-15; type: in vivo, Swiss mice; conditions: Mus musculus, ip, 192 h, × 3, intraperitoneal, minimum dose to suppress the hemaglutination titer by a 4-fold factor, 8 days after antigen, read-out: Immuno-Suppressant ED4-Fold
Outline: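 Groups of five 20-gram Swiss mice received compound i.p. and sheep blood cell antigen i.p.; sera pooled per group eight days after antigen. Hemagglutination titers of pooled sera compared with controls; value is the minimum dose suppressing titer 4-fold versus control.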

[4] = tested on: fatal glomerulonephritis in NZB/w mice; type: in vivo; conditions: for MST (mean survival time) / Percent Survivors: 300th day
Excerpt: NZB/w mice provide a close model of the human autoimmune disease, lupus erythematosis. These hybrid mice develop antinuclear antoantibody in the early months of life, which antibody becomes deposited in the glomeruli in the form of a complex with the inciting antigen. A fatal glomerulonephritis ensues. A group of these mice had been placed under continuous therapy (via the feed) with 1-(6-methoxy-2-benzothiazolyl)-3-) phenyl urea for 300 days. The mice were divided into three subgroups, 10 mice receiving 75 mg/kg/day of drug, 10 mice receiving 25 mg/kg/day, and 11 mice serving as untreated controls.
In view of the close parallel of this murine model to the human counterpart, this would appear of significance in terms of long-term human therapy.

`COc1ccc2nc(NC(=O)Nc3ccccc3)sc2c1` [Table 11: phenyl, 6-CH3 O, S, 1-(6-methoxy-2-benzothiazolyl)-3-phenyl urea] was tested, and the “in vivo mutagenic potential” value [1] was “negative”, the “Allograft Survival (Days ± S.E.)” value ([2]; oral) was 25.2 ± 2.0 Days and the “Allograft Survival (Days ± S.E.)” value ([2]; subcutaneous) was 27.7 ± 1.0 Days. For the same molecule, the minimal effective dose [3] was under 25 mg/kg, the “MST (mean survival time)” value ([4]; 25 mg/kg/day in feed) was 214 days and the “Percent Survivors” value ([4]; 25 mg/kg/day in feed) was 60%. For the same molecule, the “Day of Death” value ([4]; 75 mg/kg/day in feed, 10 mice, 300 days) was 180,281, the “MST (mean survival time)” value ([4]; 75 mg/kg/day in feed) was 286 days and the “Percent Survivors” value ([4]; 75 mg/kg/day in feed) was 80%. For the same molecule, the “effect on survival parameters” value ([4]; 300 days of therapy, 25 and 75 mg/kg/day) was “A dose-related effect of the drug on survival parameters” and the “effect on life span” value ([4]; female NZBxW mice) was “able to prolong the life of female NZBxW mice”.
